# Measurements from patent publication US20170261507A1, “Methods for Predicting and Monitoring Cancer Patients' Response to Teatment by Measuring Myeloid Derived Suppressor Cells (MDSCs)” (YISSUM RESEARCH DEVELOPMENT COMPANY OF THE HEBREW …, priority 2014, published 2017).
# Columns and labels:
# β-catenin = β-catenin immunohistochemistry of colons of CRC-mice; assay type: in vivo, mouse
# Gr1^+CD11b^+ MDSCs = test: MDSC accumulation in colon, spleen and PBLs of CRC-mice; assay type: in vivo, mouse
# MDSCs [1] = test: NO^− and ROS production by MDSCs of treated CRC-mice (flow cytometry); assay type: in vivo, mouse
# [2] = test system: MDSCs isolated from spleens of CRC-mice; test: NO^− and ROS production in ex vivo cultured MDSCs; assay type: cell-based, mouse; conditions: 2.5 μmol/L, 24 h
# T-cells = test: CFSE T-cell proliferation assay, splenocytes of CRC-mice; assay type: in vivo, mouse; conditions: CFSE-labeled Thy1.2^+ T-cells, TCR-CD28 mediated activation, vs untreated CRC-mice
# Method: (§1) Splenocytes or purified T-cells isolated by a magnetic column separation system (Miltenyi Biotec) were labeled with 5 M CFSE (Invitrogen) and subjected to TCR-mediated activation as previously described (16). Next, the effect of the given chemotherapies on the immune status was evaluated. This was performed by testing the function of the whole T-cell population (FIG. 9J) as well as the CD8^+ T-cells (FIG. 9K) in all experimental groups along with measurements of the expression levels of CD247 in CD3^+ (FIG. 9L) and in CD8^+ T-cells (FIG. 9M). T-cell proliferative response was assessed by monitoring cell divisions of gated CFSE-labeled Thy1.2^+ (CD90^+) T-cells upon TCR-CD28 mediated activation.
# CD247 = CD247 expression in T-cells of CRC-mice; assay type: in vivo, mouse; conditions: splenocytes of CRC-mice
# Method: as §1, with “Next,” for “Splenocytes or purified T-cells isolated by a magnetic column separation system (Miltenyi Biotec) were labeled with 5 M CFSE (Invitrogen) and subjected to TCR-mediated activation as previously described (16). Next,”
# CRC-mice [3] = test: Vitality and survival of CRC-mice; assay type: in vivo, mouse; conditions: daily recorded, compared to 5FU, CPT11 treated MDSC depleted or untreated CRC-mice
# Method: Therefore, MDSC depletion could reduce the harmful effect of CPT11 on the immune status, and thereby enhance the anti-tumor effect. CRC-mice were subjected to either 5FU, CPT11 or a 5FU/CPT11 combination starting at week eight, or were untreated. At the same day of the second DSS administration, CPT11-treated CRC-mice were randomly separated into two groups; one group continued with CPT11 treatment while the second group was treated with anti-Gr1 mAb for MDSC depletion in addition to CPT11 treatment. Three weeks after the second DSS treatment mice were sacrificed and PBLs (FIG. 10B) and colons (FIG. 10C) were analyzed. […] This pattern indicates a beneficial effect of 5FU that attenuates CRC progression with a harmful contribution of CPT11, supporting immunosuppression and tumor progression via its effects on MDSCs.
# cleaved caspase-3 = test: Cleaved caspase-3 in splenic MDSCs of treated CRC-mice; assay type: in vivo, mouse
# [4] = test system: MDSCs isolated from spleens of CRC mice; test: Cleaved caspase-3 in ex vivo cultured MDSCs, DCs and macrophages; assay type: cell-based, mouse; conditions: ex vivo, various doses, 3 days, dose-dependent
# CRC-derived MDSC = test: Ex vivo GM-CSF mediated myeloid-cell differentiation; assay type: cell-based, mouse; conditions: 10 ng/ml GM-CSF, 72 h, vs GM-CSF only
# TNFα, S100A9 = test: TNFα and S100A9 mRNA in ex vivo cultured MDSCs (Real Time PCR); assay type: cell-based, mouse; conditions: 3 days
# MDSCs [5] = test: BCG chronic inflammation mouse model: MDSC levels; assay type: in vivo; conditions: PBLs and spleen, compared to inflamed-untreated mice
# Method: (§2) Mice were injected intraperitoneally with 10 mg/kg body weight of Azoxymethan (AOM, purchased from Sigma-Aldrich (St. Louis, Mo., USA)) dissolved in physiological saline twice in two weeks intervals. Two weeks later, 2% dextran sulfate sodium (DSS, purchased from MP biochemicals Inc. (Santa Ana, Calif., USA)) was given in the drinking water over 7 days, followed by 14 days of regular water (15). This cycle was repeated twice. Animals were sacrificed and analyzed three weeks after the last treatment. To induce a pathology-free chronic inflammation, a previously described protocol subjecting mice to heat-killed Mycobacterium […] (BCG) treatment (16) was used.
# (§3) Next, the immunoregulatory effects of 5FU and CPT11 were examined in a mouse model for chronic inflammation and associated immunosuppression (10), as described in the materials and method section above and in FIG. 13A. This experiment was performed in order to investigate whether the differential effects of the drugs are related to the presence of the tumor. Briefly, the mouse model for chronic inflammation was established by three repeated injections of heat-killed BCG bacteria. A day after the second BCG injection, mice were treated twice a week with 5FU, CPT11 or a 5FU/CPT11 combination. […] No changes in CD4^+Foxp3^+ Tregs percentage were detected (FIG. 13H), confirming that these chemotherapies specifically affect MDSCs.
# MDSCs [6] = test: BCG chronic inflammation mouse model: ROS and NO^− production by MDSCs; assay type: in vivo; conditions: splenic MDSCs, compared to inflamed-untreated mice
# Method: as §2, §3
# CRC-mice [7] = test system: CRC-mice
# MDSCs [8] = test: Myeloid cell differentiation in vivo in CRC-mice
# S100A8/9 = conditions: MDSCs from spleen of CRC-mice
# [9] = test system: stage-4 melanoma patients; test: Ipilimumab treatment of stage-4 metastatic melanoma patients: response and survival; assay type: in vivo, human
# Method: The percentage of MDSC with the profile CD11b^+CD33^+HLA-DR^− was measured in peripheral blood samples (3-5 ml) of healthy donors (n=40) and stage-4 melanoma patients (n=56) prior to ipilimumab (anti-CTLA4) treatment. All the melanoma patients were diagnosed with metastatic melanoma. The samples were taken according to the Helsinki approval. Clinical parameters were acquired from the medical records of patients.
# In order to evaluate whether MDSC levels in the blood can predict responsiveness to treatment with the anti CTLA4 antibody ipilimumab, the levels of MDSC in the peripheral blood of melanoma patients were measured, as described above, prior to treatment with ipilimumab. […] As shown in FIG. 3A there was a strike correlation between high levels of MDSC in the peripheral blood of patients and subsequent failure to respond to treatment with ipilimumab. Clearly, this parameter could distinguish between the two groups of melanoma patients. In addition, the level of lactate dehydrogenase (LDH) was evaluated before the treatment with ipilimumab began. There was no significant difference between the groups of patients with respect to this parameter (FIG. 3B).
# The following experiment was performed in order to evaluate whether MDSC levels in the blood can predict metastatic severity and patient survival. The levels of MDSC, as well as the levels of LDH, were measured in the peripheral blood of melanoma patients, as described above, prior to treatment with ipilimumab. […] In addition, as shown in FIG. 4B higher MDSCs levels are found in the group of patients with high LDH levels (LDH low<480 U/I; LDH high>480 U/I). In addition, the melanoma patients were divided into two groups according to their MDSCs levels measured prior to the ipilimumab treatments; one group was termed Low MDSCs (<55.5%, n=39) and the other group was termed High MDSCs (>55.5%, n=14). The percent survival and their survival in months were evaluated. […] The survival in months of the Low MDSCs group being 11.56±1.2 (n=39) and of the High MDSCs group being 6.857±1.4 (n=14). Apparently, high MDSC levels are predictors of a more severe metastatic profile and of a shorter survival time of the cancer patient.
# In this experiment the survival of melanoma patients was correlated with the severity of their metastatic stage and with their LDH levels. The patients were divided into two groups according to their metastatic level prior to ipilimumab treatments; the first group included patients with the relatively lower metastatic severity, namely M1A/B/C, and the second group included patients with the higher, M2, metastatic severity. As shown in FIGS. 5A and 5B the survival of patients in the M1A/B/C group was higher than the survival of the patients in the M2 group, being 12.4±1.2 months (n=35) in the M1A/B/C group and 6.1±1.1 months (n=18) in the M2 group. The patients were divided into two groups according their LDH levels prior to ipilimumab treatments; the first group included patients with the relatively lower LDH level, namely LDH<480 U/I; and the second group included patients with the higher LDH level, namely LDH>480 U/I. As shown in FIGS. 5C and 5D the survival of patients in the LDH low group was higher than the survival of the patients in the LDH high group, being 13.5±1.4 months (n=28) in the LDH low group and 6.6±0.9 months (n=20) in the LDH high group. Apparently, high LDH levels and a severe metastatic stage are predictors of a shorter survival time of the cancer patient.
# These patients had high LDH levels on the day the first ipilimumab treatment was given and their staging level was M1C.
compound,measurement,setting,value
"CCc1c2c(nc3ccc(OC(=O)N4CCC(N5CCCCC5)CC4)cc13)-c1cc3c(c(=O)n1C2)COC(=O)[C@]3(O)CC [CPT11, Irinotecan]",β-catenin localization in CRC colons,β-catenin,massive β-catenin accumulation in the nuclei of tumor cells
same,MDSCs within the colon (immunohistochemical probing),Gr1^+CD11b^+ MDSCs; anti-Gr-1 staining,elevated levels of the cells
same,MDSC numbers / infiltration in colon,"Gr1^+CD11b^+ MDSCs; lamina propria and epithelium, flow cytometry, vs untreated CRC-mice",increased MDSC numbers
same,NO^− production,"MDSCs [1]; lamina propria and epithelial MDSCs, vs untreated CRC mice",NO^− levels remained elevated
same,NO^− and ROS production,"MDSCs [1]; splenic MDSCs, compared to untreated CRC-mice",elevated levels
same,NO^− and ROS production in monocytic and granulocyte MDSC populations,[2],increased NO^− (FIG. 9H) and ROS (FIG. 9I) production
same,NO^− or ROS production in purified cultured MDSCs,[2],resulted in their elevation
same,T-cell proliferative ability,T-cells,decreased T-cell proliferative ability
same,CD247 expression levels in T-cells,CD247,low CD247 levels
same,vitality and survival of the mice,CRC-mice [3],increased death rates
same,cleaved caspase-3 expression in spleen MDSCs,cleaved caspase-3,decreased cleaved caspase-3 levels
same,cleaved caspase-3 in purified cultured MDSCs,[4],not CPT11 leads to cleaved caspase-3 up-regulation
same,GM-CSF mediated CRC-derived MDSC differentiation,CRC-derived MDSC,prevented cell differentiation
same,mRNA levels of TNFα and S100A9,"TNFα, S100A9",increased mRNA levels
same,MDSC levels,MDSCs [5],induced opposite effects
same,ROS and NO^− production,MDSCs [6],induced opposite effects
same,spleen size (inflammatory response),CRC-mice [7]; compared to 5FU treated CRC- or control-mice,enlarged spleen size
same,tumor load within the colon (hematoxylin-eosin histopathology),"CRC-mice [7]; monotherapy for three weeks, vs untreated CRC mice",no apparent differences in tumor loads
same,histopathological analysis of colon sections (hematoxylin-eosin),CRC-mice [7]; three weeks after second DSS treatment,differentiated adenocarcinoma
same,histological analyses of colons,CRC-mice [7]; treated CRC-mice,"not only a loss of entire crypts and surface epithelial layer, but also a massive leukocyte infiltration into the mucosa"
same,myeloid cell differentiation in vivo (DCs and macrophages),MDSCs [8],blocked myeloid cell differentiation
same,S100A8/9 mRNA and protein levels,S100A8/9,increased S100A8/9 levels
ipilimumab: humanized anti-CTLA4 monoclonal antibody,survival in months,"[9]; LDH high group (>480 U/I, n=20) prior to ipilimumab",6.6±0.9 months
same,survival in months,"[9]; LDH low group (<480 U/I, n=28) prior to ipilimumab",13.5±1.4 months
same,survival in months,"[9]; M1A/B/C group (n=35), metastatic level prior to ipilimumab",12.4±1.2 months
same,survival in months,"[9]; M2 group (n=18), metastatic level prior to ipilimumab",6.1±1.1 months
same,survival in months,"[9]; melanoma patients, High MDSCs group (>55.5%, n=14) prior to ipilimumab",6.857±1.4 months
same,survival in months,"[9]; melanoma patients, Low MDSCs group (<55.5%, n=39) prior to ipilimumab",11.56±1.2 months
same,patients that responded to the ipilimumab treatment,[9]; out of the 56 patients involved in this study,14 patients
